According to the kinase profiling compilation of Christmann-Franck et al. (2016):

Columns and labels:
Experiment in all cases: radiometric filter-binding kinase assay, Kinase HotSpot
Settings in all cases: compound 0.5 µM; ATP 10 µM
[1] = system: MKNK1 (human), Q9BUB5 [T385D; 165-205 del]
CDK4 CCND1 (human) = CDK4 CCND1 (human) (UniProt P24385+P11802)
CDK4 CCND3 (human) = CDK4 CCND3 (human) (UniProt P30281+P11802)
NUAK2 (human) = NUAK2 (human) (UniProt Q9H093)
AKT2 (human) = AKT2 (human) (UniProt P31751)
PHKG2 (human) = PHKG2 (human) (UniProt P15735)
ADRBK2 (human) = ADRBK2 (human) (UniProt P35626)
DYRK3 (human) = DYRK3 (human) (UniProt O43781)
MAPK1 (human) = MAPK1 (human) (UniProt P28482)
MAPK1 (human), sequence (P28482 whole entry, looked up): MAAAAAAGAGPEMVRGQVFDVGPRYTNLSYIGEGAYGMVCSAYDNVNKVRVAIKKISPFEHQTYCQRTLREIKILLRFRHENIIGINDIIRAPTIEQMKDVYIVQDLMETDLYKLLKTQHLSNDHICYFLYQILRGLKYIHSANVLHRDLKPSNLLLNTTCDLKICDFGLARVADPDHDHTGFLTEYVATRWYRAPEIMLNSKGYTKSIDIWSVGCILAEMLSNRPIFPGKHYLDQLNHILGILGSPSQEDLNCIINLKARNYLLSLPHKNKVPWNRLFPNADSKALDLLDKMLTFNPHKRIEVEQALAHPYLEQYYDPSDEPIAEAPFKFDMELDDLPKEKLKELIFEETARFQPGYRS

OXSR1 (human) = OXSR1 (human) (UniProt O95747)
OXSR1 (human), sequence (O95747 whole entry, looked up): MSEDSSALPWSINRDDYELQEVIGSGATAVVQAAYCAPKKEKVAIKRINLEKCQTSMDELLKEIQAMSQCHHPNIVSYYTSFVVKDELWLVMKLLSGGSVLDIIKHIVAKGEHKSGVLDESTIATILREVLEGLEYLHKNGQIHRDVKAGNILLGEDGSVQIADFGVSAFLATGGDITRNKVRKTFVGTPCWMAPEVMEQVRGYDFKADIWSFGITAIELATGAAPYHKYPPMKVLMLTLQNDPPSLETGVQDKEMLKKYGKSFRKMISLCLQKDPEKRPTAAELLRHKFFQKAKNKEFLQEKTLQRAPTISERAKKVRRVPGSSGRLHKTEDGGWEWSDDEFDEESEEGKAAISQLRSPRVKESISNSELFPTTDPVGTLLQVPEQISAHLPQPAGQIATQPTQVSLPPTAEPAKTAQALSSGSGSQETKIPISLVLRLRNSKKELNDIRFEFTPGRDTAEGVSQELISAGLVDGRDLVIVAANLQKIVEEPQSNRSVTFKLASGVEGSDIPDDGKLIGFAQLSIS

[2] = system: FLT4 (human), P35916 [Q890H]
CAMK2D (human) = CAMK2D (human) (UniProt Q13557)
CAMK2D (human), sequence (Q13557 whole entry, looked up): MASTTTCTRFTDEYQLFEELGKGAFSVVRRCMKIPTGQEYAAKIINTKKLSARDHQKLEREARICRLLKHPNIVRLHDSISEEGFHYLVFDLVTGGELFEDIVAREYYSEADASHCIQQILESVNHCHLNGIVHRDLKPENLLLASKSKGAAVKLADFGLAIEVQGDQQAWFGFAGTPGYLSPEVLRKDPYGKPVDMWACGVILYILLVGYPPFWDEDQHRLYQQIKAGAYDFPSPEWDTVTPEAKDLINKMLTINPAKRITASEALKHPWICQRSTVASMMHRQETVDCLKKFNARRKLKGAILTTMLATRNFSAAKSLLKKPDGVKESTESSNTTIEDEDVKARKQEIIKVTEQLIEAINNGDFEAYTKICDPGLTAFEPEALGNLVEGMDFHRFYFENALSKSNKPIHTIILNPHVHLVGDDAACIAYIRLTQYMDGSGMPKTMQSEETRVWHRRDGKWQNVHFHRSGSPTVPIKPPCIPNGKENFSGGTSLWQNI

DSTYK (human) = DSTYK (human) (UniProt Q6XUX3)
RPS6KA3 KD1 KD2 (human) = RPS6KA3 KD1 KD2 (human) (UniProt P51812)
TTK (human) = TTK (human) (UniProt P33981)
IRAK1 (human) = IRAK1 (human) (UniProt P51617)
NLK (human) = NLK (human) (UniProt Q9UBE8)
GSG2 (human) = GSG2 (human) (UniProt Q8TF76)
TNK2 (human) = TNK2 (human) (UniProt Q07912)
PDGFRA (human) = PDGFRA (human) (UniProt P16234)
STK4 (human) = STK4 (human) (UniProt Q13043)
SIK2 (human) = SIK2 (human) (UniProt Q9H0K1)
MATK (human) = MATK (human) (UniProt P42679)
CDK7 CCNH MNAT1 (human) = CDK7 CCNH MNAT1 (human) (UniProt P50613+P51948+P51946)
NEK3 (human) = NEK3 (human) (UniProt P51956)
ALK (human) = ALK (human) (UniProt Q9UM73)
ALK (human), sequence (Q9UM73 whole entry, looked up): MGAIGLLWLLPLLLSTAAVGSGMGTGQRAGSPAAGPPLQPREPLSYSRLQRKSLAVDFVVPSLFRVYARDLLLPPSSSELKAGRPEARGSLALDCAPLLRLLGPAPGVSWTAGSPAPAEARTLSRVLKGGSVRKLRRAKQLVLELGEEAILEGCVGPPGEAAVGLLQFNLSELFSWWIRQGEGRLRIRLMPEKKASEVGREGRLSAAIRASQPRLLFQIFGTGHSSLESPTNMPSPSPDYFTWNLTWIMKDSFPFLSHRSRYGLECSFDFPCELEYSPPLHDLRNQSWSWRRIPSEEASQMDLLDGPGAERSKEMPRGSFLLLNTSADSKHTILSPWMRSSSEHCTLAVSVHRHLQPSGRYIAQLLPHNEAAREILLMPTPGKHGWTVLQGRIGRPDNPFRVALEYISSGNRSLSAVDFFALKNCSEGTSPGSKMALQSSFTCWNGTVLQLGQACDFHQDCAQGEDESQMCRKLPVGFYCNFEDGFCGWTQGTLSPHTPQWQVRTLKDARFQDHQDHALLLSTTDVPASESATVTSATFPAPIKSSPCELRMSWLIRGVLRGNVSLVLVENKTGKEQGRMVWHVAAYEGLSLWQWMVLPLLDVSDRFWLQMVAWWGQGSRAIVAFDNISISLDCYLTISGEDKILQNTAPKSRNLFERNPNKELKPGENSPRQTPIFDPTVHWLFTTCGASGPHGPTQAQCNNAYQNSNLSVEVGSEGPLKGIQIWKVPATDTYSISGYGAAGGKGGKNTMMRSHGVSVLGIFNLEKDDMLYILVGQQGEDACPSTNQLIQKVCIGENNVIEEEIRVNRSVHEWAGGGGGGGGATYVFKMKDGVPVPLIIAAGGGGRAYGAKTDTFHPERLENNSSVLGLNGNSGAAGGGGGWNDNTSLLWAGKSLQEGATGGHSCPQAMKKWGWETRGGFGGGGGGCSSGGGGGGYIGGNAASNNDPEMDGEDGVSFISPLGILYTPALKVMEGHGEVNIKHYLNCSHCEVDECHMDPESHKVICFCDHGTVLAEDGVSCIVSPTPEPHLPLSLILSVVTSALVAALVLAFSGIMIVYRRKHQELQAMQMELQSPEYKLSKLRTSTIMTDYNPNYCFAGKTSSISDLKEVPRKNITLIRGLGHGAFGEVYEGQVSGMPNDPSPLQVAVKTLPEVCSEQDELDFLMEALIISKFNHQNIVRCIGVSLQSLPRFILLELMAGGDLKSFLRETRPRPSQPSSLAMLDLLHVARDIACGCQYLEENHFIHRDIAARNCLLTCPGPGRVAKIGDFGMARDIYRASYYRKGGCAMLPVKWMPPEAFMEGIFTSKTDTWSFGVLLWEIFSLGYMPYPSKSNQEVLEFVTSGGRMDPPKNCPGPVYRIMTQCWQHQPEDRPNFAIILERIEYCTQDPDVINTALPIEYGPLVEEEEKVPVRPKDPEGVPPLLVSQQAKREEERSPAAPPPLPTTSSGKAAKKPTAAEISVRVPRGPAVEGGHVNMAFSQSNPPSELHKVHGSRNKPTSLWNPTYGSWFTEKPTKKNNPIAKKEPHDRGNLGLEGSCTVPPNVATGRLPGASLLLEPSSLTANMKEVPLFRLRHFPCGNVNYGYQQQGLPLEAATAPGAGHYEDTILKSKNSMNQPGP

WEE1 (human) = WEE1 (human) (UniProt P30291)
WEE1 (human), sequence (P30291 whole entry, looked up): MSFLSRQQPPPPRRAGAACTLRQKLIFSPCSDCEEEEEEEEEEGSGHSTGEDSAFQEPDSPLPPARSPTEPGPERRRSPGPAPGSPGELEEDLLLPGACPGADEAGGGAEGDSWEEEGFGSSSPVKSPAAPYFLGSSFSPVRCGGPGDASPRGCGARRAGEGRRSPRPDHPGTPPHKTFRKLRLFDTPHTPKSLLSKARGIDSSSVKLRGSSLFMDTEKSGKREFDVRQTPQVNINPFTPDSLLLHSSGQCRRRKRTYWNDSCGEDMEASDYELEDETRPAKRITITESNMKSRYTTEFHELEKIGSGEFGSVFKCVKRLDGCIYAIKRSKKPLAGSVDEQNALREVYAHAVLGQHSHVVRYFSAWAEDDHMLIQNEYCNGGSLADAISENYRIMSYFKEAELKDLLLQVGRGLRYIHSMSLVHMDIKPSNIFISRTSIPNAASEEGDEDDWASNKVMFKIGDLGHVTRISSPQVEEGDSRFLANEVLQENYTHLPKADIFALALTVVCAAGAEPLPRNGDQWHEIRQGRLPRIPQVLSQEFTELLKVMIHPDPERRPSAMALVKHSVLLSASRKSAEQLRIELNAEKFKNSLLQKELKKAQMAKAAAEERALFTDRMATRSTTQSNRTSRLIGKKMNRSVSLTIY

WNK2 (human) = WNK2 (human) (UniProt Q9Y3S1)
BRSK2 (human) = BRSK2 (human) (UniProt Q8IWQ3)
DCLK2 (human) = DCLK2 (human) (UniProt Q8N568)
FLT3 (human) = FLT3 (human) (UniProt P36888)
SRPK2 (human) = SRPK2 (human) (UniProt P78362)
DAPK1 (human) = DAPK1 (human) (UniProt P53355)
ROCK1 (human) = ROCK1 (human) (UniProt Q13464)
MARK1 (human) = MARK1 (human) (UniProt Q9P0L2)
PBK (human) = PBK (human) (UniProt Q96KB5)
PBK (human), sequence (Q96KB5 whole entry, looked up): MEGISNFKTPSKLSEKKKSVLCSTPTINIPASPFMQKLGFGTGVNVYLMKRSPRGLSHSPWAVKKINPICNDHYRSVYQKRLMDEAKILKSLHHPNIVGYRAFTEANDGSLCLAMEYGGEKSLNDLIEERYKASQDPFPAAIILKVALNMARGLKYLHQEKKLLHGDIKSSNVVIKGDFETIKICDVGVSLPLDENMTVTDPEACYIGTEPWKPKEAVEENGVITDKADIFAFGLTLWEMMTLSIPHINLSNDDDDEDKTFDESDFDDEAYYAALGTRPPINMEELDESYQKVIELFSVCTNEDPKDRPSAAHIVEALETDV

CHEK1 (human) = CHEK1 (human) (UniProt O14757)

CDK4 CCND1 (human), sequence (P11802 whole entry, looked up): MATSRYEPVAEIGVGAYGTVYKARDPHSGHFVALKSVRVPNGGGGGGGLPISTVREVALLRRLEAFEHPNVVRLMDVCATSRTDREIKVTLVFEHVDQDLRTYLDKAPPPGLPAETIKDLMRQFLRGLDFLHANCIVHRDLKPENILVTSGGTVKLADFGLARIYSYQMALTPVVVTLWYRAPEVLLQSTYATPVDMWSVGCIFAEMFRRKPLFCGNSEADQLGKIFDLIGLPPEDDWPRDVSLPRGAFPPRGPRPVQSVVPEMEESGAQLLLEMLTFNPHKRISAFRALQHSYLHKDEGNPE
CDK4 CCND1 (human), sequence (P24385 whole entry, looked up): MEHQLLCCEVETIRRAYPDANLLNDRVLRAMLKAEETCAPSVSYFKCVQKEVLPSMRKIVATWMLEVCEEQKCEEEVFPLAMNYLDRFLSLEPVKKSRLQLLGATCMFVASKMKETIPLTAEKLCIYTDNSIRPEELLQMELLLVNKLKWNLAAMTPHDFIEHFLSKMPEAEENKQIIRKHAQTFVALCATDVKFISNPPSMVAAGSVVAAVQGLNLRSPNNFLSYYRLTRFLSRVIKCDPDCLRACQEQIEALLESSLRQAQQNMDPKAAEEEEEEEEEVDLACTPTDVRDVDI
CDK4 CCND3 (human), sequence (P11802 whole entry, looked up): as the sequence (P11802 whole entry, looked up) above
CDK4 CCND3 (human), sequence (P30281 whole entry, looked up): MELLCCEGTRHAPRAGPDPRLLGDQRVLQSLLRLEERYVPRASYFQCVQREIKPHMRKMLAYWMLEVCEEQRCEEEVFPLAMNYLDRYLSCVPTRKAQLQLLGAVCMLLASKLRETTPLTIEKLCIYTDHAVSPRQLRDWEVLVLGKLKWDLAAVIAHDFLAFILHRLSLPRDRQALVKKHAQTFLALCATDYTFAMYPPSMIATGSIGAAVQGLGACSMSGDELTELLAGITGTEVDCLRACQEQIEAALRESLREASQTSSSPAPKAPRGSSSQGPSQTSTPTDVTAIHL

Row | Compound | residual activity [1] | residual activity (CDK4 CCND1 (human)) | residual activity (CDK4 CCND3 (human)) | residual activity (NUAK2 (human)) | residual activity (AKT2 (human)) | residual activity (PHKG2 (human)) | residual activity (ADRBK2 (human)) | residual activity (DYRK3 (human)) | residual activity (MAPK1 (human)) | residual activity (OXSR1 (human)) | residual activity [2] | residual activity (CAMK2D (human)) | residual activity (DSTYK (human)) | residual activity (RPS6KA3 KD1 KD2 (human)) | residual activity (TTK (human)) | residual activity (IRAK1 (human)) | residual activity (NLK (human)) | residual activity (GSG2 (human)) | residual activity (TNK2 (human)) | residual activity (PDGFRA (human)) | further results
1 | CN(C)c1ccc(/C=C2\C(=O)Nc3ccccc32)cc1 | 97.3% | 97.7% | 98.9% | 94.3% | 98.1% | 95.9% | 98.9% | 99.5% | 96.4% | 106% | 98.8% | 96.4% | 103% | 92.6% | 99.7% | 102% | 102% | 88.5% | 101% | 79.9% | residual activity (STK4 (human)): 93.2%; residual activity (SIK2 (human)): 101%; residual activity (MATK (human)): 95.3%; residual activity (CDK7 CCNH MNAT1 (human)): 99.4%; residual activity (NEK3 (human)): 95.2%; residual activity (ALK (human)): 99.7%; residual activity (WEE1 (human)): 88.6%; residual activity (WNK2 (human)): 104%; residual activity (BRSK2 (human)): 93%; residual activity (DCLK2 (human)): 100%; residual activity (FLT3 (human)): 15.3%; residual activity (SRPK2 (human)): 100%; residual activity (DAPK1 (human)): 92.2%; residual activity (ROCK1 (human)): 98.3%; residual activity (MARK1 (human)): 97.3%; residual activity (PBK (human)): 101%; residual activity (CHEK1 (human)): 98.2%
2 | CCCCc1c(-c2ccc(OC)cc2)[nH]c2nccnc12 | 97.7% | 60.4% | 69.7% | 68% | 93.8% | 106% | 95.6% | 96.1% | 103% | 102% | 81.1% | 93.3% | 97.6% | 88% | 87.9% | 64.3% | 88.4% | 80% | 51.2% | 90.3% | residual activity (STK4 (human)): 82.2%; residual activity (SIK2 (human)): 98.4%; residual activity (MATK (human)): 101%; residual activity (CDK7 CCNH MNAT1 (human)): 92.6%; residual activity (NEK3 (human)): 99.1%; residual activity (ALK (human)): 96.7%; residual activity (WEE1 (human)): 85.9%; residual activity (WNK2 (human)): 112%; residual activity (BRSK2 (human)): 90.8%; residual activity (DCLK2 (human)): 101%; residual activity (FLT3 (human)): 47.8%; residual activity (SRPK2 (human)): 105%; residual activity (DAPK1 (human)): 90.6%; residual activity (ROCK1 (human)): 99.9%; residual activity (MARK1 (human)): 92.9%; residual activity (PBK (human)): 80.6%; residual activity (CHEK1 (human)): 93.1%
3 | COc1ccc(C(=O)Nc2sc3c(c2C(N)=O)CCCC3)cc1OC | 98.2% | 95.9% | 98.8% | 99.5% | 97% | 106% | 103% | 98% | 91.2% | 99.9% | 110% | 104% | 92.2% | 93% | 95.6% | 79.8% | 93.7% | 82.8% | 93.4% | 96.4% | residual activity (STK4 (human)): 104%; residual activity (SIK2 (human)): 102%; residual activity (MATK (human)): 92.7%; residual activity (CDK7 CCNH MNAT1 (human)): 99.9%; residual activity (NEK3 (human)): 95.8%; residual activity (ALK (human)): 66.2%; residual activity (WEE1 (human)): 92.3%; residual activity (WNK2 (human)): 100%; residual activity (BRSK2 (human)): 97.9%; residual activity (DCLK2 (human)): 98.6%; residual activity (FLT3 (human)): 42%; residual activity (SRPK2 (human)): 97.6%; residual activity (DAPK1 (human)): 78.2%; residual activity (ROCK1 (human)): 107%; residual activity (MARK1 (human)): 97.9%; residual activity (PBK (human)): 103%; residual activity (CHEK1 (human)): 112%
4 | COc1ccc2c(c1)c(C1=C(c3c[nH]c4ccccc34)C(=O)NC1=O)cn2CCCN(C)C | 92.8% | 78.6% | 95.5% | 81% | 110% | 98.3% | 96.3% | 81% | 102% | 97.7% | 23.6% | 74.8% | 82.8% | 6.55% | 89.9% | 89% | 87.9% | 93.5% | 77.9% | 85.2% | residual activity (STK4 (human)): 65.2%; residual activity (SIK2 (human)): 103%; residual activity (MATK (human)): 99.3%; residual activity (CDK7 CCNH MNAT1 (human)): 88%; residual activity (NEK3 (human)): 98.3%; residual activity (ALK (human)): 96%; residual activity (WEE1 (human)): 85.1%; residual activity (WNK2 (human)): 96.5%; residual activity (BRSK2 (human)): 61.3%; residual activity (DCLK2 (human)): 84.8%; residual activity (FLT3 (human)): 23.2%; residual activity (SRPK2 (human)): 88%; residual activity (DAPK1 (human)): 105%; residual activity (ROCK1 (human)): 93.5%; residual activity (MARK1 (human)): 93.2%; residual activity (PBK (human)): 96.8%; residual activity (CHEK1 (human)): 88.8%
5 | CN(C)CCCn1cc(C2=C(c3c[nH]c4ccccc34)C(=O)NC2=O)c2ccccc21 | 81.2% | 60.7% | 67% | 66% | 88.7% | 97.9% | 99% | 97.9% | 100% | 97.4% | 30.6% | 38.7% | 95% | 2.47% | 98.2% | 91.1% | 94% | 93.6% | 94.7% | 69.2% | residual activity (STK4 (human)): 25.1%; residual activity (SIK2 (human)): 94.7%; residual activity (MATK (human)): 100%; residual activity (CDK7 CCNH MNAT1 (human)): 92.1%; residual activity (NEK3 (human)): 110%; residual activity (ALK (human)): 87%; residual activity (WEE1 (human)): 101%; residual activity (WNK2 (human)): 107%; residual activity (BRSK2 (human)): 55.6%; residual activity (DCLK2 (human)): 95%; residual activity (FLT3 (human)): 5.6%; residual activity (SRPK2 (human)): 94.4%; residual activity (DAPK1 (human)): 87.9%; residual activity (ROCK1 (human)): 92.3%; residual activity (MARK1 (human)): 84.1%; residual activity (PBK (human)): 81.3%; residual activity (CHEK1 (human)): 39.1%
